Measurements published in patent US8728797B2, “Yeast membrane protein expression system and its application in drug screening” (priority 2001, dated 2014).
Values after ≈ are worked out from the molar mass of the structure shown.

What was measured:
[1] = tested on: S. cerevisiae AD1002 expressing C. albicans Cdr1p; assay: MIC microdilution test, strain expressing Cdr1p; assay type: cell-based
Method: (§1) The MICs of antifungal agents for S. cerevisiae cells were determined by a microdilution test based on the macrodilution reference method of the National Committee for Clinical Laboratory Standards. Cells (10 μl cell suspension, 2×10^5 cells/ml) were inoculated into 90 μl CSM-URA, buffered with 10 mM 2-(N-morpholino)ethanesulfonic acid (MES) and 18 mM N-2-hydroxyethylpiperazine-N′-2-ethanesulfonic acid (HEPES), pH 7.0 and containing 0.67% (w/v) yeast nitrogen base (YNB) in microtitre plate wells. For the uracil-requiring strain AD1-8u^− the medium was supplemented with 0.02% (w/v) uridine. The wells contained, in […], doubling dilutions of antifungal agents (final concentrations: fluconazole, 40-0.078 μg/ml; itraconazole and ketoconazole, 8-0.016 μg/ml). The microtitre plates were incubated at 30° C. for 48 h with shaking and then the growth of cells in individual wells (OD590) was measured with a microplate reader (EL 340, Bio-Tek, Winooski, Vt.). The MIC80 was the lowest concentration of drug that inhibited growth yield by at least 80% compared to a no-drug control.

[2] = tested on: AD-CDR1 (Cdr1p); assay: MIC in liquid microdilution assay, AD-CDR1; assay type: cell-based, S. cerevisiae; details: Saccharomyces cerevisiae
Method: as §1

[3] = tested on: AD1002; assay: Disk drug susceptibility assay of chemosensitisation to fluconazole; assay type: cell-based, S. cerevisiae; details: 5 μg/ml fluconazole, 12 nanomole peptide on disk
Method: (A) Checkerboard drug susceptibility assay of AD1002. This assay was conducted as described in Materials and methods in the presence of the indicated concentrations of fluconazole and KN20. (B) Disk drug susceptibility assay of AD1002. This assay was conducted, as described in Materials and methods for Example 4, in the absence or presence of 5 μg/ml fluconazole, with (1) KN0 (12 nanomole), (2) KN20 (12 nanomole) or (0) control amounts of DMSO applied to the disks. (C) Checkerboard drug susceptibility assay of ATCC 10261. This assay was conducted, as described in Material and methods for Example 4, in the presence of the indicated concentrations of fluconazole and KN20. D indicates cell death as measured by a failure to recover any colony forming units when samples from microtitre plate wells were cultured on solid YPD medium.
Drug susceptibility was measured using disk assays on CSM-URA plates (containing 1.5% w/v agar). Plates were seeded with yeast cells suspended in top agar (5 ml, 10^5 cells/ml). For the uracil-dependent parental strain, agar was supplemented with 0.02% uridine. Five microliters of drug solution or solvent control were spotted onto sterile Whatman paper disks on the top agar. […]

[4] = tested on: Cdr1p ATPase; assay: Oligomycin sensitive ATPase/NTPase activity of AD1002 plasma membranes; assay type: biochemical, C. albicans; details: ratio of inhibitory concentrations Cdr1p/Pdr5p
Method: Membrane fractions were isolated from S. cerevisiae AD1002 (▪) or parental AD1-8u^− cells (●). ATPase assays were carried out at 30° C. for 30 min, as described in Materials and methods for Example 2. The oligomycin-sensitive activity was determined as the difference in ATPase activity in the presence and absence of 20 μM oligomycin. […] The results are the means (+/−SD) of four determinations carried out on two membrane preparations.
(B) Inhibition profile with KN20 on the oligomycin-sensitive Cdr1p ATPase activity of plasma membranes from AD1002 minus the oligomycin-sensitive ATPase activity of plasma membranes from the isogenic AD1-8u^− strain.
Yeast were grown in YEPD, pH 5.5 at 30° C. until they reached late-exponential phase of growth (OD600 nm=7), washed twice in ice-cold distilled water, and incubated on ice for 30 min to minimize glucose-stimulated Pma1p activity. Cells were resuspended in homogenising medium (50 mM Tris pH 7.5, 2 mM EDTA and 1 mM phenylmethylsulfonyl fluoride) and disrupted using a Braun Homogeniser. Cell debris and unbroken cells were removed by centrifuging at 2,000×g at 4° C. for 10 min. A crude membrane fraction was isolated from the cell-free supernatant by centrifuging at 30,000×g at 4° C. for 45 min. Plasma membranes were prepared by centrifugation of the supernatant obtained after selective precipitation of mitochondria at pH 5.2 as described previously (Goffeau, A. and Dufour, J. P., 1988). The plasma membranes were resuspended in 10 mM Tris pH 7.0, 0.5 mM EDTA and 20% [v/v] glycerol and stored at −80° C. Protein was determined using a micro-Bradford (Bio-Rad Laboratories, Hercules, Calif. [Bradford, M. M., 1976]) assay with gamma-globulin as standard. Nucleotide triphosphatase activity was measured by incubating the plasma membrane fractions (10 μg) at 30° C. in a final volume of 120 μl containing 6 mM NTP, 7 mM MgSO4 in 59 mM MES-Tris buffer pH 6.0-8.0. To eliminate possible contributions from nonspecific phosphatases, vacuolar, or mitochondrial ATPases, 0.2 mM ammonium molybdate, 50 mM KNO3 and 10 mM NaN3, respectively, were included in assays (Monk B C, et al, 1991). Other ATPase inhibitors (20 μM oligomycin, 20 μM aurovertin B or 100 μM vanadate were added to the reaction where indicated. After 30 min the reaction was stopped by adding 130 μl of a solution containing 1% (w/v) SDS, 0.6 M H2SO4, 1.2% (w/v) ammonium molybdate and 1.6% (w/v) ascorbic acid. Inorganic phosphate released from NTPs was measured at 750 nm after 10 min incubation at room temperature.

Compound: OC(Cn1cncn1)(Cn1cncn1)c1ccc(F)cc1F [fluconazole]
- MIC80 ([1]; AD1002 expressing Cdr1p, 30° C., 48 h, pH 7.0): 30 µg/mL (≈ 98 µM)
- fold increase in MIC ([1]; AD1002 relative to parental AD1-8u^−): > 45 fold
- MIC [2]: 400 µg/mL (≈ 1310 µM)

Compound: D-octapeptide NH2-Asn-Trp-Trp-Lys-Val-Arg-Arg-Arg-CONH2 with a single 4-methoxy-2,3,6-trimethylbenzenesulphonyl (Mtr) substituent on one tryptophan sidechain; Pdr5p inhibitor [KN20]
- chemosensitisation to fluconazole in disk assay [3]: chemosensitises
- Cdr1p ATPase inhibition concentration relative to Pdr5p ATPase [4]: 2.7 fold
